Common to all, as to type: cell-based
One assay has as its system K. pneumoniae 60. Description: MIC determination, broth microdilution (CLSI). The note with it: Klebsiella pneumoniae, 60, strain 2.
The next assay relates to B. fragilis 6688. Description: MIC determination, broth microdilution (CLSI). Particulars: Bacteroides fragilis, 6688, strain 15; broth microdilution; read-out: MIC strain 15 (B. fragilis 6688).
The next assay concerns S. pneumoniae 113. Description: MIC determination, broth microdilution (CLSI). The note with it: Streptococcus pneumoniae, 113, strain 13; broth microdilution; read-out: MIC strain 13 (S. pneumoniae 113). On the technique in general: Broth dilution looks for growth in wells or tubes with falling amounts of substance.
The test system of a further assay is Bacteria. In words: MIC determination in combination with β-lactamase inhibitors (constant 4 μg/mL).
The test system of another assay is C. freundii K21/3034. In words: MIC determination, broth microdilution (CLSI). The note with it: Citrobacter freundii, K21/3034, strain 4.
The test system of another assay is E. cloacae 34654. Description: MIC determination, broth microdilution (CLSI). The note with it: Enterobacter cloacae, 34654, strain 3.
The subject of another assay is S. aureus 133. Description: MIC determination, broth microdilution (CLSI).
A further assay deals with E. coli J62. In words: MIC determination, broth microdilution (CLSI). The note with it: Escherichia coli, J62, strain 17; broth microdilution; read-out: MIC strain 17 (E. coli J62).
The next assay has as its system E. coli ATCC25922. In words: MIC determination, broth microdilution (CLSI). The note with it: Escherichia coli, ATCC25922, strain 1.
In a further assay the test system is E. coli J62-TEM-3. Description: MIC determination, broth microdilution (CLSI). The note with it: Escherichia coli, J62TEM3, read-out: MIC strain 18 (E. coli J62-TEM-3), strain 18; broth microdilution.
Assay [1] deals with P. aeruginosa 2297 (AmpC wt). Description: MIC determination, broth microdilution (CLSI). Particulars: Pseudomonas aeruginosa, strain 7.
The next assay relates to A. baumannii ATCC15308. In words: MIC determination, broth microdilution (CLSI). The note with it: Acinetobacter baumannii, ATCC15308, strain 9.
The subject of the next assay is M. morganii 126/3048. In words: MIC determination, broth microdilution (CLSI). The note with it: Morganella morganii, 126/3048, strain 5.
For the next assay, the system named is H. influenzae ATCC 49247. Description: MIC determination, broth microdilution (CLSI). The note with it: Haemophilus influenzae, ATCC49247, strain 12; broth microdilution; read-out: MIC strain 12 (H. influenzae ATCC 49247).
In the next assay the test system is P. aeruginosa PAO1. In words: MIC determination, broth microdilution (CLSI). Particulars: Pseudomonas aeruginosa, PAO1, strain 6.
The mark [2] stands for this setting: Staphylococcus aureus, 133, strain 11, read-out: strain 11 MIC.
Where [3] appears, read: Staphylococcus aureus, 133, strain 14, broth microdilution, read-out: MIC strain 14 (S. aureus 133).

In brackets after ≈: the same amount, converted by molar mass. Where two headings read alike, the source gives them in different places.

`C[C@H]1[C@H](NC(=O)/C(=N\OCCOCc2cc(C(=N)N)cs2)c2csc(N)n2)C(=O)N1S(=O)(=O)O` [Example 56, (2S,3S)-3-{[(2Z)-2-(2-Amino-1,3-thiazol-4-yl)-2-({2-[(4-carbamimidoylthiophen-2-yl)methoxy]ethoxy}imino)acetyl]amino}-2-methyl-4-oxoazetidine-1-sulfonic acid]: the MIC against K. pneumoniae 60 was 0.5 µg/mL (≈ 0.941 µM); in the assay with B. fragilis 6688, 32 µg/mL (≈ 60.2 µM); in the assay on S. pneumoniae 113, 4 µg/mL (≈ 7.52 µM); in the assay with C. freundii K21/3034, 0.5 µg/mL (≈ 0.941 µM); against E. cloacae 34654, 4 µg/mL (≈ 7.52 µM); in the assay on S. aureus 133 (setting [2]) it was 1 µg/mL (≈ 1.88 µM). The MIC in the assay with S. aureus 133 (setting [3]) is 8 µg/mL (≈ 15 µM); in the assay on E. coli J62, 2 µg/mL (≈ 3.76 µM); in the assay with E. coli ATCC25922, 2 µg/mL (≈ 3.76 µM); in the assay on E. coli J62-TEM-3, 32 µg/mL (≈ 60.2 µM); in [1], 32 µg/mL (≈ 60.2 µM); in the assay on A. baumannii ATCC15308 it was 4 µg/mL (≈ 7.52 µM). The MIC was 0.5 µg/mL (≈ 0.941 µM) with M. morganii 126/3048, 2 µg/mL (≈ 3.76 µM) with H. influenzae ATCC 49247 and 32 µg/mL (≈ 60.2 µM) against P. aeruginosa PAO1. For the same molecule, the “MIC strain 19 (E. coli J62-TEM-3 + 4 μg/mL clavulanic acid)” value in the assay on Bacteria amounted to 1 µg/mL. In addition, the “MIC strain 20 (E. coli J62-TEM-3 + 4 μg/mL sulbactam)” value in the assay on Bacteria was determined as 4 µg/mL. Further, the “MIC strain 21 (E. coli J62-TEM-3 + 4 μg/mL tazobactam)” value in the assay with Bacteria was found to be 4 µg/mL.
Regarding `C[C@H]1[C@H](NC(=O)/C(=N\OCCOc2ccc(C(=N)NCCOC=O)cc2)c2csc(N)n2)C(=O)N1S(=O)(=O)O` [Example 70, (2S,3S)-3-{[(2Z)-2-(2-Amino-1,3-thiazol-4-yl)-2-{[2-(4-{N-[2-(formyloxy)ethyl]carbamimidoyl}phenoxy)ethoxy]imino}acetyl]amino}-2-methyl-4-oxoazetidine-1-sulfonic acid], the MIC is 0.25 µg/mL (≈ 0.428 µM) with K. pneumoniae 60; 16 µg/mL (≈ 27.4 µM) in the assay with B. fragilis 6688; 0.5 µg/mL (≈ 0.857 µM) in the assay on S. pneumoniae 113; 0.125 µg/mL (≈ 0.214 µM) against C. freundii K21/3034; 0.25 µg/mL (≈ 0.428 µM) in the assay on E. cloacae 34654; 0.125 µg/mL (≈ 0.214 µM) in the assay on S. aureus 133 (setting [2]). Moreover, the MIC in the assay on S. aureus 133 (setting [3]) is 8 µg/mL (≈ 13.7 µM); in the assay on E. coli J62 it was 0.25 µg/mL (≈ 0.428 µM); against E. coli ATCC25922, 0.125 µg/mL (≈ 0.214 µM); in the assay with E. coli J62-TEM-3, 16 µg/mL (≈ 27.4 µM); in assay [1], 4 µg/mL (≈ 6.85 µM); against A. baumannii ATCC15308, 2 µg/mL (≈ 3.43 µM). Moreover, the MIC came to 0.125 µg/mL (≈ 0.214 µM) against M. morganii 126/3048, 0.125 µg/mL (≈ 0.214 µM) in the assay on H. influenzae ATCC 49247 and 4 µg/mL (≈ 6.85 µM) with P. aeruginosa PAO1. Besides, the “MIC strain 19 (E. coli J62-TEM-3 + 4 μg/mL clavulanic acid)” value in the assay with Bacteria turned out to be 0.25 µg/mL. Besides, the “MIC strain 20 (E. coli J62-TEM-3 + 4 μg/mL sulbactam)” value with Bacteria was 0.25 µg/mL. The “MIC strain 21 (E. coli J62-TEM-3 + 4 μg/mL tazobactam)” value in the assay with Bacteria is 0.25 µg/mL.
Consider `C[C@H]1[C@H](NC(=O)/C(=N\OCCOc2ccc(C(=N)NCCN)cc2)c2csc(N)n2)C(=O)N1OCS(=O)(=O)O` [Example 77, {[(2S,3S)-3-{[(2Z)-2-[(2-{4-[N-(2-Aminoethyl)carbamimidoyl]phenoxy}ethoxy)imino]-2-(2-amino-1,3-thiazol-4-yl)acetyl]amino}-2-methyl-4-oxoazetidin-1-yl]oxy}methanesulfonic acid], for which the MIC against K. pneumoniae 60 amounted to 2 µg/mL (≈ 3.42 µM); with C. freundii K21/3034 it was 0.5 µg/mL (≈ 0.855 µM); against E. cloacae 34654, 2 µg/mL (≈ 3.42 µM); in the assay on E. coli J62, 0.5 µg/mL (≈ 0.855 µM); in the assay on E. coli ATCC25922, 0.5 µg/mL (≈ 0.855 µM); in the assay with E. coli J62-TEM-3 it was 16 µg/mL (≈ 27.4 µM). In addition, the MIC in assay [1] came to 16 µg/mL (≈ 27.4 µM); with A. baumannii ATCC15308 it was 8 µg/mL (≈ 13.7 µM); with M. morganii 126/3048 it was 2 µg/mL (≈ 3.42 µM); with P. aeruginosa PAO1, 8 µg/mL (≈ 13.7 µM). In addition, the “MIC strain 19 (E. coli J62-TEM-3 + 4 μg/mL clavulanic acid)” value in the assay on Bacteria is 1 µg/mL. For the same molecule, the “MIC strain 20 (E. coli J62-TEM-3 + 4 μg/mL sulbactam)” value in the assay with Bacteria turned out to be 1 µg/mL. Besides, the “MIC strain 21 (E. coli J62-TEM-3 + 4 μg/mL tazobactam)” value in the assay on Bacteria was 1 µg/mL.
For the molecule `C[C@H]1[C@H](NC(=O)/C(=N\OCCOc2cc(C(=N)N)n(C)n2)c2csc(N)n2)C(=O)N1S(=O)(=O)O` [Example 72, (2S,3S)-3-{[(2Z)-2-(2-Amino-1,3-thiazol-4-yl)-2-({2-[(5-carbamimidoyl-1-methyl-1H-pyrazol-3-yl)oxy]ethoxy}imino)acetyl]amino}-2-methyl-4-oxoazetidine-1-sulfonic acid], the MIC against K. pneumoniae 60 was determined as 0.25 µg/mL (≈ 0.485 µM); with B. fragilis 6688, 16 µg/mL (≈ 31 µM); with S. pneumoniae 113 it was 2 µg/mL (≈ 3.88 µM); against C. freundii K21/3034, 0.5 µg/mL (≈ 0.97 µM); in the assay on E. cloacae 34654, 1 µg/mL (≈ 1.94 µM); with S. aureus 133 (setting [2]), 0.25 µg/mL (≈ 0.485 µM). Also, the MIC in the assay with S. aureus 133 (setting [3]) is 16 µg/mL (≈ 31 µM); with E. coli J62, 1 µg/mL (≈ 1.94 µM); in the assay on E. coli ATCC25922 it was 0.5 µg/mL (≈ 0.97 µM); in the assay on E. coli J62-TEM-3 it was 32 µg/mL (≈ 62.1 µM); in assay [1], 8 µg/mL (≈ 15.5 µM); in the assay with A. baumannii ATCC15308 it was 4 µg/mL (≈ 7.76 µM). The MIC in the assay with M. morganii 126/3048 is 0.25 µg/mL (≈ 0.485 µM); with H. influenzae ATCC 49247, 0.5 µg/mL (≈ 0.97 µM); against P. aeruginosa PAO1, 8 µg/mL (≈ 15.5 µM). Moreover, the “MIC strain 19 (E. coli J62-TEM-3 + 4 μg/mL clavulanic acid)” value in the assay with Bacteria worked out at 1 µg/mL. The “MIC strain 20 (E. coli J62-TEM-3 + 4 μg/mL sulbactam)” value in the assay on Bacteria worked out at 1 µg/mL. In the assay on Bacteria, the “MIC strain 21 (E. coli J62-TEM-3 + 4 μg/mL tazobactam)” value was determined as 1 µg/mL.

These data come from patent publication US9556165B2 (priority 2012, dated 2017).
